≈ marks a conversion by molar mass, not a printed value. *1 amine or outer side, *2 acyl side, *3 side chain or, on linkers, in order; H or OH if unused. Where a SMILES comes first, the peptide text is derived from it. Bridges are numbered along the chain shown (N, C = ends). [ ]: non-standard residue; d: D form. The star is where a group is joined. X2 = NCCCC[C@H](N)C(=O)NCCCOCCOCCOCCCN*; Suc = O=C(CCC(=O)[*:2])[*:1]
Experiments:
[1] = test system: human FVIII inhibited plasma; assay: Defined Intrinsic Thrombin Generation Assay (DITGA, triggered by FXIa and phospholipids); format: biochemical; conditions: for Activity in the Defined Intrinsic Thrombin Generation Assay: summary
Text: (§1) The intrinsic pathway of thrombin generation may be assayed in a thrombin generation assay by including FXIa and phospholipids. In such an assay, which is similar to an activated partial thromboplastin time (aPTT) test, thrombin generation is solely directed through the intrinsic pathway, and is FVIII dependent. A suitable assay is the Defined Intrinsic Thrombin Generation Assay described below. Alternatively, by employing low concentrations of TF and phospholipids instead of FXIa and phospholipids, thrombin is generated by both the extrinsic (tissue factor) and the intrinsic pathways. This form of the thrombin generation assay is the more physiologic one, as both thrombin generation pathways are involved; it is partially FVIII dependent. A suitable assay is the Defined Dual-Pathway Thrombin Generation Assay.
The Defined Intrinsic Thrombin Generation Assay is performed as follows. FVIII activity of human plasma is inhibited by incubating (2 hours, 37° C.) 40 μl of human normal plasma with 10 μl heat inactivated anti-human FVIII plasma raised in goat (600 BU/ml, 6 hours incubated at 56° C.). […] Instead of FVIII-inhibited plasma, FVIII inhibitor patient plasma or several depleted plasmas can be used. The micro-plate is immediately put into a GENios Plus (Tecan) or Safire 2 (Tecan) fluorescence reader and the fluorescence signal (ex 340 nm/em 440 nm) is followed kinetically by reading the plate every 21 seconds.
For calculation of activity equivalent units experiments are performed with dilutions of Factor Eight Inhibitor Bypassing Agent (FEIBA, Baxter AG), Immunate (human FVIII, purified plasma derived) reference standard (Baxter AG) or Recombinate standard (human FVIII, purified recombinant, Baxter AG). A linear fit of the logarithm of FEIBA (FVIII) concentration plotted against thrombin generation time at peak thrombin results in a standard curve. With this curve FEIBA (FVIII) equivalent activity is calculated for a defined peptide concentration. […] Thus, where a concentration of 100 μM is given, the actual concentration in the final assay volume in 40 μM.
Compounds were screened using the “Defined intrinsic thrombin generation assay” in which thrombin generation was quantified in vitro in FVIII-inhibited human plasma in the presence of Factor XIa and phospholipid vesicles. Further compounds were screened in the above assay, and in the “Defined dual-pathway thrombin generation assay” using tissue factor and phospholipids instead of Factor XIa and phospholipids, as described in the specific description.
Various concentrations of each peptide were tested in the defined intrinsic thrombin generation assay using human FVIII inhibited plasma.

FVIII inhibited plasma = assay: Defined Dual-Pathway Thrombin Generation Assay (DDPTGA, reagent C high), FVIII inhibited plasma; format: biochemical, human; conditions: for Peak IIa FEIBA EU / Peak IIa FVIIa EU / Peak Time FEIBA EU / Peak Time FVIIa EU: FVIII inhibited plasma
Text: as §1
(§2) Preferably, Reagent C high is used.
(§3) Tissue factor dependency of peak thrombin generation and thrombin peak time was characterised in a composition containing a fixed concentration of phospholipid (namely 3.2 μM). Phospholipid dependency was characterised in a composition containing a fixed concentration of tissue factor (namely 7.2 μM). Peak time (time to peak thrombin generation) was dependent on the concentration of phospholipid or tissue factor. The final version of this assay is as described in the specific description, in which 10 μl reagent C high containing (32 μM phospholipid and 71.6 μM tissue factor) is used in a total volume of 100 μl.
(§4) Further studies were conducted using 3.2 μM phospholipid and 7.2 μM tissue factor in FVIII deficient or inhibited plasma, to characterise the effect on peak thrombin generation and thrombin peak time of various coagulation factor preparations. These studies provided a basis from which to compare the efficacy of the compounds in the assay. Briefly, rFVIII (Recombinate® FVIII from Baxter) was tested at 0, 5, 10, 20, 40 and 80 mU/ml in FVIII deficient plasma. FEIBA was tested at 0, 8, 16, 31, 63 and 125 mU/ml in FVIII inhibited plasma. FVIIa was tested at 0, 0.1, 0.4, 1.6, 6.3 and 25 nM in FVIII inhibited plasma. […] Peak thrombin increased and both the lag time and the thrombin peak time decrease.

FVIII deficient plasma = assay: Defined Dual-Pathway Thrombin Generation Assay (DDPTGA, reagent C high), FVIII deficient plasma; format: biochemical, human; conditions: FVIII deficient plasma
Text: as §1, §2, §3, §4

physchem = conditions: for solubility kinetic: pH 7.4
Protocol: Aqueous solubility is measured in PBS at pH 7.4 either in an assay provided by Cerep (France, Catalog ref. 900-11a) or according to the following protocol. The aim of this procedure is to determine the solubility of a drug candidate (analyte) in a buffer, by estimating the saturation concentration of the candidate in the buffer using HPLC. A known concentration of the candidate in an organic solvent is used as a standard. A stock solution of the test compound in DMSO must be prepared as the initial step. […] DMSO stock-solutions are diluted to a final concentration of 50 μM with DMSO (100% reference-solution) and buffer (test-solution) to provide a minimum volume of 500 μL of each. Both solutions are shaken at 25° C. at 950 rpm in an Eppendorf “thermomixer comfort” for at least 60 min. The suspension is centrifuged at 22 330 g for at least two min and 100 μL of the supernatant is transferred into polypropylene-inserts placed in glass vials and closed by snap-ring caps. Alternatively the solutions can be prepared in microtiter plates with half of the previously described starting solvent volume. For the determination of the solubility all samples are analyzed by HPLC in triplicate. Injection volume is at least 10 μL. The obtained data are analyzed by “Chemstation-software” (Agilent, Waldbronn, Germany). The peaks from the analyses of the organic solutions are integrated and the arithmetic mean is reported as “AUC 1” (reference area of known amount injected at the HPLC). […] The ratio of the mean “AUC 2” and “AUC 1” is calculated and thus the percentage of the dissolved amount of compound in buffer is obtained and solubility can be reported in μM.

Plasma stability = conditions: human
Protocol: Half-life of compounds in human or mouse plasma, or percentage of compound remaining after an incubation in human or mouse plasma, is determined as follows. In the experimental procedure, test compound concentrations are 5 μM, prepared from test compound stock solutions of 10 mM in DMSO. Propantheline is used as a standard. […] All of the samples are incubated in a water bath at 37° C. […] After a chosen duration of incubation (generally at t=60 min) each sample is mixed with a further 500 μl acetonitrile. The samples are mixed on a vortex mixer for 30 s and placed on ice for 10 min and collected for centrifugation. Samples are centrifuged at 20 000 g for 10 min at 4° C. 500 μl supernatant is transferred into a new 1.5 ml Eppendorf tube and an equal volume of acetonitrile is added. The sample is mixed again for 30 s using a vortex mixer. After a second centrifugation step (20 000 g, 10 min, 4° C.) 250 μl of the supernatant is transferred into HPLC glass vials for HPLC-MS analysis. Conditions for performing HPLC are as follows: Injection-volume is set to 20 μl. Temperature is set to 25° C. A linear gradient from 95:5 to 5:95 water:acetonitrile both containing 0:05% trifluoroacetic acid (TFA) (v/v) is applied at a flow rate of 0.3 ml/min for 10 min. The PDA-detector is scanning from 210-400 nm.

With Ac-RMDFDVWDLYFEIVW-NH2 [Peptide A03] as the compound, how does the “Thrombin peak time given as FEIBA equivalent activity” value (from here on “Thrombin peak time given”) ([1]; peptide 6.25 μM) read?
The value was 477 mU/ml.

And the “Thrombin peak time given” value ([1]; peptide 12.5 μM)?
The value was 639 mU/ml.

And the “Thrombin peak time given” value ([1]; peptide 25 μM)?
Its value is 762 mU/ml.

And the “Thrombin peak time given” value ([1]; peptide 50 μM)?
The value was 1069 mU/ml.

What about the “Thrombin peak time given” value ([1]; peptide 100 μM) of the same compound?
The value was 1396 mU/ml.

And the “Activity in the Defined Intrinsic Thrombin Generation Assay” value [1]?
Its value is “possess activity”.

What about the “Peak IIa FEIBA EU” value (FVIII inhibited plasma; peptide 50 μM) of the same compound?
The value was “BLS (BLS = below lowest standard.)”.

And the “Peak IIa FVIIa EU” value (FVIII inhibited plasma; peptide 50 μM)?
The value was “BLS (BLS = below lowest standard.)”.

What about the “Peak Time FEIBA EU” value (FVIII inhibited plasma; peptide 50 μM) of the same compound?
Its value is “BLS (BLS = below lowest standard.)”.

What about the “Peak Time FVIIa EU” value (FVIII inhibited plasma; peptide 50 μM) of the same compound?
The value was “BLS (BLS = below lowest standard.)”.

And the “Peak IIa FEIBA EU” value (FVIII inhibited plasma; peptide 100 μM)?
The value was “BLS (BLS = below lowest standard.)”.

What about the “Peak IIa FVIIa EU” value (FVIII inhibited plasma; peptide 100 μM) of the same compound?
The value was “BLS (BLS = below lowest standard.)”.

And the “Peak Time FEIBA EU” value (FVIII inhibited plasma; peptide 100 μM)?
The value was “BLS (BLS = below lowest standard.)”.

And the “Peak Time FVIIa EU” value (FVIII inhibited plasma; peptide 100 μM)?
The value was “BLS (BLS = below lowest standard.)”.

What about the “Activity in the Defined Dual-Pathway Thrombin Generation Assay” value (FVIII inhibited plasma; summary, FVIII inhibited or deficient plasma) of the same compound?
Its value is “possess activity”.

What about the “Peak IIa FVIII EU” value (FVIII deficient plasma; peptide 50 μM) of the same compound?
The value was “BLS (BLS = below lowest standard.)”.

What about the “Peak Time FVIII EU” value (FVIII deficient plasma; peptide 50 μM) of the same compound?
Its value is “BLS (BLS = below lowest standard.)”.

And the “Peak IIa FVIII EU” value (FVIII deficient plasma; peptide 100 μM)?
The value was “BLS (BLS = below lowest standard.)”.

And the “Peak Time FVIII EU” value (FVIII deficient plasma; peptide 100 μM)?
The value was “BLS (BLS = below lowest standard.)”.

And the solubility kinetic (physchem)?
Its solubility kinetic is 110 µM.

What about the remaining at 0.5 h, 5 μM (Plasma stability) of the same compound?
Its remaining at 0.5 h, 5 μM is 92%.

For `CSCC[C@H]1NC(=O)[C@@H](Cc2ccc(O)cc2)NC(=O)[C@H](NC(=O)CCC(=O)NCCCOCCOCCOCCCNC(=O)[C@@H](N)CCCCN)CSSC[C@H](C(=O)N[C@H](Cc2ccc(O)cc2)C(=O)N[C@H](CCC(=O)O)C(N)=O)NC(=O)[C@@H](CC(=O)O)NC(=O)[C@@H](Cc2ccc(O)cc2)NC(=O)[C@@H](Cc2c[nH]c3ccccc23)NC(=O)[C@@H](Cc2ccccc2)NC1=O` [Peptide B06, K-TTDS-(cymfwydc)-ye-NH2] ({X2-Suc}-[dC][dY][dM][dF][dW][dY][dD][dC][dY][dE]-NH2; disulfide 1-8), which “Thrombin peak time given” value ([1]; peptide 12.5 μM) is on record?
Its value is 95 mU/ml.

And the “Thrombin peak time given” value ([1]; peptide 25 μM)?
Its value is 157 mU/ml.

And the “Thrombin peak time given” value ([1]; peptide 50 μM)?
Its value is 172 mU/ml.

What about the “Thrombin peak time given” value ([1]; peptide 100 μM) of the same compound?
The value was 378 mU/ml.

And the “Thrombin peak time given” value ([1]; peptide 200 μM)?
The value was 902 mU/ml.

And the “Activity in the Defined Intrinsic Thrombin Generation Assay” value [1]?
Its value is “possess activity”.

What about the solubility kinetic (physchem) of the same compound?
Its solubility kinetic is 48 µM (≈ 88.8 µg/mL).

And the solubility (physchem; pH 7.4, Solubility in PBS pH 7.4)?
Its solubility is no less than 25 µM.

What about the remaining at 0.5 h, 5 μM (Plasma stability) of the same compound?
The remaining at 0.5 h, 5 μM was 93%.

With Ac-VWDLYFEIVW-NH2 [Peptide A19] as the compound, how does the “Thrombin peak time given” value ([1]; peptide 6.25 μM) read?
The value was 383 mU/ml.

And the “Thrombin peak time given” value ([1]; peptide 12.5 μM)?
The value was 495 mU/ml.

What about the “Thrombin peak time given” value ([1]; peptide 25 μM) of the same compound?
The value was 525 mU/ml.

What about the “Thrombin peak time given” value ([1]; peptide 50 μM) of the same compound?
The value was 663 mU/ml.

And the “Thrombin peak time given” value ([1]; peptide 100 μM)?
The value was 826 mU/ml.

And the “Activity in the Defined Intrinsic Thrombin Generation Assay” value [1]?
Its value is “possess activity”.

And the solubility kinetic (physchem)?
Its solubility kinetic is 14 µM.

And the remaining at 0.5 h, 5 μM (Plasma stability)?
Its remaining at 0.5 h, 5 μM is 99%.

From patent US10822376B2, “Biologically active peptides” (Baxalta Incorporated, priority 2008, dated 2020)
